Read-outs that look alike come from different tables or passages of the source.

Assay [1] has as its system phosphorylated AKT Ser473 (pAKT S473), mTORC2 activity, PC3 cells. Nature of the assay: mTOR target engagement assay, immunofluorescent cell-based, pAKT S473 readout (mTORC2 activity). The settings on record: Homo sapiens. Summed up:
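After blocking, cells were stained overnight at 4 °C with anti-pAKT S473 antibody, then a fluorescent secondary; inhibition was read as reduced fluorescence intensity.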

Assay [2] concerns phosphorylated 4E-BP1 Thr37/46 (p4E-BP1 Thr37/46), mTORC1 activity, PC3 cells. Nature of the assay: mTOR target engagement assay, immunofluorescent cell-based, p4E-BP1 Thr37/46 readout (mTORC1 activity). The following applies: Homo sapiens, read-out: p4E-BP1 Thr37/46 IC50. Put shortly: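 Cell-based immunofluorescence in PC3 cells: serially diluted compounds (0.25% DMSO, 5% FBS) applied for ninety minutes at 37° C before fixation and overnight 4° C staining of p4E-BP1 Thr37/46. Untreated DMSO wells set maximal phosphorylation; IC50 obtained by logistic fitting.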

The mark [3] stands for this setting: PC-3, PC3 cells, compound treatment ninety minutes at 37° C.

For the compound `CS(=O)(=O)c1c([C@@H]2C[C@H]3CC[C@@H](C2)N3c2nccc(N)n2)nc2c(-c3ccc(-c4ccccc4)nc3)cnn2c1N` [Compound 8.63, 5-((1R,3s,5S)-8-(4-aminopyrimidin-2-yl)-8-azabicyclo[3.2.1]octan-3-yl)-6-(methylsulfonyl)-3-(6-phenylpyridin-3-yl)pyrazolo[1,5-a]pyrimidin-7-amine], the IC50 in assay [1] (PC-3, PC3 cells) was in the range of 1000 to 10000 nM; in assay [2] (PC-3, PC3 cells), 1000 to 10000 nM.

For the compound `Cc1cc(-c2cnn3c(N)c(S(C)(=O)=O)c([C@@H]4C[C@H]5CC[C@@H](C4)N5C(=O)c4nnc[nH]4)nc23)cnc1C(C)(C)O` [Compound 3.157, ((1R,3s,5S)-3-(7-amino-3-(6-(2-hydroxypropan-2-yl)-5-methylpyridin-3-yl)-6-(methylsulfonyl)pyrazolo[1,5-a]pyrimidin-5-yl)-8-azabicyclo[3.2.1]octan-8-yl)(4H-1,2,4-triazol-3-yl)methanone], the IC50 in assay [1] (PC-3, Table 3-1, PC3 cells) is 1 to 100 nM; in assay [2] (PC-3, Table 3-1, PC3 cells) it was 1 to 100 nM.

Consider `CS(=O)(=O)c1c([C@@H]2C[C@H]3CC[C@@H](C2)N3C(=O)c2nnc[nH]2)nc2c(-c3cnn(-c4ccc(F)cc4)c3)cnn2c1N` [Compound 3.88, ((1R,3s,5S)-3-(7-amino-3-(1-(4-fluorophenyl)-1H-pyrazol-4-yl)-6-(methyslulfonyl)pyrazolo[1,5-a]pyrimidin-5-yl)-8-azabicyclo[3.2.1]octan-8-yl)(4H-1,2,4-triazol-3-yl)methanone], for which the IC50 in assay [1] (PC-3, Table 3-1, PC3 cells) lay within 100 to 1000 nM; in assay [2] (PC-3, Table 3-1, PC3 cells), 1000 to 10000 nM.

For `CS(=O)(=O)c1c([C@@H]2C[C@H]3CC[C@@H](C2)N3C(=O)c2nnc[nH]2)nc2c(-c3ccc(-c4ccc(OC(F)F)cc4)nc3)cnn2c1N` [Compound 3.55, ((1R,3s,5S)-3-(7-amino-3-(6-(4-(difluoromethoxy)phenyl)pyridin-3-yl)-6-(methylsulfonyl)pyrazolo[1,5-a]pyrimidin-5-yl)-8-azabicyclo[3.2.1]octan-8-yl)(4H-1,2,4-triazol-3-yl)methanone], the IC50 in assay [1] (PC-3, Table 3-1, PC3 cells) was 1 to 100 nM; in assay [2] (PC-3, Table 3-1, PC3 cells), 1 to 100 nM.

`COc1ccc(-c2ccc(-c3cnn4c(N)cc([C@@H]5C[C@H]6CC[C@@H](C5)N6C(=O)CO)nc34)cn2)cc1CO` [Compound 2.7, 1-((1R,3s,5S)-3-(7-amino-3-(6-(3-(hydroxymethyl)-4-methoxyphenyl)pyridin-3-yl)pyrazolo[1,5-a]pyrimidin-5-yl)-8-azabicyclo[3.2.1]octan-8-yl)-2-hydroxyethanone]: the IC50 in assay [1] (setting [3]) and in assay [2] (setting [3]) was 100 to 1000 nM in each case.

Take `COc1ccc(-c2ccc(-c3cnn4c(N)c(S(C)(=O)=O)c([C@@H]5C[C@H]6CC[C@@H](C5)N6C(=O)c5nnc(C)[nH]5)nc34)cn2)cc1` [Compound 3.34, ((1R,3s,5S)-3-(7-amino-3-(6-(4-methoxyphenyl)pyridin-3-yl)-6-(methylsulfonyl)pyrazolo[1,5-a]pyrimidin-5-yl)-8-azabicyclo[3.2.1]octan-8-yl)(5-methyl-4H-1,2,4-triazol-3-yl)methanone]: the IC50 in assay [1] (PC-3, Table 3-1, PC3 cells) lay within 1 to 100 nM; in assay [2] (PC-3, Table 3-1, PC3 cells), 1 to 100 nM.

For the compound `CC(=O)c1c([C@@H]2C[C@H]3CC[C@@H](C2)N3C(=O)c2nnc[nH]2)nc2c(-c3ccc(C4(O)CCCC4)nc3)cnn2c1N` [Compound 7.50, 1-(5-((1R,3s,5S)-8-(4H-1,2,4-triazole-3-carbonyl)-8-azabicyclo[3.2.1]octan-3-yl)-7-amino-3-(6-(1-hydroxycyclopentyl)pyridin-3-yl)pyrazolo[1,5-a]pyrimidin-6-yl)ethanone], the IC50 in assay [1] (PC-3, Table 7-8, PC3 cells) fell in the range of 1 to 100 nM; in assay [2] (PC-3, Table 7-8, PC3 cells), 1 to 100 nM.

In the case of `CC(=O)c1c([C@H]2C[C@H]3CC[C@@H](C2)N3C(=O)CO)nc2c(-c3ccc(-c4ccccc4)nc3)cnn2c1N` [Compound 1.1.9, 1-((1R,3r,5S)-3-(6-acetyl-7-amino-3-(6-phenylpyridin-3-yl)pyrazolo[1,5-a]pyrimidin-5-yl)-8-azabicyclo[3.2.1]octan-8-yl)-2-hydroxyethanone], the IC50 in assay [1] (setting [3]) and in assay [2] (setting [3]) was 100 to 1000 nM in each case.

As for `CC(=O)c1c([C@@H]2C[C@H]3CC[C@@H](C2)N3C(=O)c2nnc[nH]2)nc2c(-c3ccc(-n4cnc(C)c4)nc3)cnn2c1N` [Compound 1.1.128, 1-(5-((1R,3s,5S)-8-(4H-1,2,4-triazole-3-carbonyl)-8-azabicyclo[3.2.1]octan-3-yl)-7-amino-3-(6-(4-methyl-1H-imidazol-1-yl)pyridin-3-yl)pyrazolo[1,5-a]pyrimidin-6-yl)ethanone], the IC50 in assay [1] (setting [3]) and in assay [2] (setting [3]) was greater than 10000 nM in each case.

Turning to `CS(=O)(=O)c1c([C@@H]2C[C@H]3CC[C@@H](C2)N3c2noc(=O)[nH]2)nc2c(-c3ccc(-c4ccccc4)nc3)cnn2c1N` [Compound 8.74, 3-((1R,3s,5S)-3-(7-amino-6-(methylsulfonyl)-3-(6-phenylpyridin-3-yl)pyrazolo[1,5-a]pyrimidin-5-yl)-8-azabicyclo[3.2.1]octan-8-yl)-1,2,4-oxadiazol-5(4H)-one], the IC50 was 1000 to 10000 nM in assay [1] (PC-3, PC3 cells) and greater than 10000 nM in assay [2] (PC-3, PC3 cells).

In the case of `CC(=O)c1c(N2C3CCC2CN(C(=O)[C@@H](C)O)C3)nc2c(-c3ccc(-c4ccccc4)nc3)cnn2c1N` [Compound 8.6, (2R)-1-(8-(6-acetyl-7-amino-3-(6-phenylpyridin-3-yl)pyrazolo[1,5-a]pyrimidin-5-yl)-3,8-diazabicyclo[3.2.1]octan-3-yl)-2-hydroxypropan-1-one], the IC50 is 100 to 1000 nM in assay [1] (PC-3, PC3 cells) and 1000 to 10000 nM in assay [2] (PC-3, PC3 cells).

As to `CC(=O)c1c([C@@H]2C[C@H]3CC[C@@H](C2)N3C(=O)c2nnc[nH]2)nc2c(-c3cnc4ccc(CO)cc4c3)cnn2c1N` [Compound 1.1.126, 1-(5-((1R,3s,5S)-8-(4H-1,2,4-triazole-3-carbonyl)-8-azabicyclo[3.2.1]octan-3-yl)-7-amino-3-(6-(hydroxymethyl)quinolin-3-yl)pyrazolo[1,5-a]pyrimidin-6-yl)ethanone], the IC50 in assay [1] (setting [3]) and in assay [2] (setting [3]) was 1000 to 10000 nM throughout.

As to `CC(=O)c1c([C@@H]2C[C@H]3CC[C@@H](C2)N3C(=O)c2nnc[nH]2)nc2c(-c3ccc(-n4cccn4)nc3)cnn2c1N` [Compound 1.1.177, 1-(3-(6-(1H-pyrazol-1-yl)pyridin-3-yl)-5-((1R,3s,5S)-8-(4H-1,2,4-triazole-3-carbonyl)-8-azabicyclo[3.2.1]octan-3-yl)-7-aminopyrazolo[1,5-a]pyrimidin-6-yl)ethanone], the IC50 in assay [1] (setting [3]) and in assay [2] (setting [3]) was 1 to 100 nM each time.

With `CC(=O)c1c([C@@H]2C[C@H]3CC[C@@H](C2)N3C(=O)c2nnc[nH]2)nc2c(-c3ccc([C@H](C)O)cc3)cnn2c1N` [Compound 7.22, 1-(5-((1R,3s,5S)-8-(4H-1,2,4-triazole-3-carbonyl)-8-azabicyclo[3.2.1]octan-3-yl)-7-amino-3-(4-((S)-1-hydroxyethyl)phenyl)pyrazolo[1,5-a]pyrimidin-6-yl)ethanone], the IC50 in assay [1] (setting [3]) and in assay [2] (setting [3]) was 1 to 100 nM in each case.

Consider `CC(=O)c1c([C@@H]2C[C@H]3CC[C@@H](C2)N3C(=O)c2nnc[nH]2)nc2c(-c3ccc(CO)nc3)cnn2c1N` [Compound 7.1, 1-(5-((1R,3s,5S)-8-(4H-1,2,4-triazole-3-carbonyl)-8-azabicyclo[3.2.1]octan-3-yl)-7-amino-3-(6-(hydroxymethyl)pyridin-3-yl)pyrazolo[1,5-a]pyrimidin-6-yl)ethanone], for which the IC50 in assay [1] (setting [3]) and in assay [2] (setting [3]) was 1 to 100 nM in each case.

As for `CS(=O)(=O)c1c([C@@H]2C[C@H]3CC[C@@H](C2)N3C(=O)c2ncc[nH]2)nc2c(-c3ccc(-c4ccccc4)nc3)cnn2c1N` [Compound 3.78, ((1R,3s,5S)-3-(7-amino-6-(methylsulfonyl)-3-(6-phenylpyridin-3-yl)pyrazolo[1,5-a]pyrimidin-5-yl)-8-azabicyclo[3.2.1]octan-8-yl)(1H-imidazol-2-yl)methanone], the IC50 is 100 to 1000 nM in assay [1] (PC-3, Table 3-1, PC3 cells) and 100 to 1000 nM in assay [2] (PC-3, Table 3-1, PC3 cells).

As for `CC(=O)c1c([C@@H]2C[C@H]3CC[C@@H](C2)N3C(=O)C(N)=O)nc2c(-c3ccc(-c4ccccc4)nc3)cnn2c1N` [Compound 1.1.118, 2-((1R,3s,5S)-3-(6-acetyl-7-amino-3-(6-phenylpyridin-3-yl)pyrazolo[1,5-a]pyrimidin-5-yl)-8-azabicyclo[3.2.1]octan-8-yl)-2-oxoacetamide], the IC50 in assay [1] (setting [3]) and in assay [2] (setting [3]) was 100 to 1000 nM in each case.

`CS(=O)(=O)c1c([C@@H]2C[C@H]3CC[C@@H](C2)N3C#N)nc2c(-c3ccc(-c4ccccc4)nc3)cnn2c1N` [Compound 8.70, (1R,3s,5S)-3-(7-amino-6-(methylsulfonyl)-3-(6-phenylpyridin-3-yl)pyrazolo[1,5-a]pyrimidin-5-yl)-8-azabicyclo[3.2.1]octane-8-carbonitrile]: the IC50 lay within 100 to 1000 nM in assay [1] (PC-3, PC3 cells) and 1000 to 10000 nM in assay [2] (PC-3, PC3 cells).

`CC(=O)c1c([C@@H]2C[C@H]3CC[C@@H](C2)N3C(=O)c2nnc[nH]2)nc2c(-c3ccc(C4(O)COC4)nc3)cnn2c1N` [Compound 7.45, 1-(5-((1R,3s,5S)-8-(4H-1,2,4-triazole-3-carbonyl)-8-azabicyclo[3.2.1]octan-3-yl)-7-amino-3-(6-(3-hydroxyoxetan-3-yl)pyridin-3-yl)pyrazolo[1,5-a]pyrimidin-6-yl)ethanone]: the IC50 in assay [1] (PC-3, Table 7-8, PC3 cells) is 100 to 1000 nM; in assay [2] (PC-3, Table 7-8, PC3 cells) it was 100 to 1000 nM.

The values above are taken from US9227971B2, “Pyrazolo[1,5-a]pyrimidine compounds as mTOR inhibitors” (Merck Sharp & Dohme Corp., priority 2010, dated 2016).
